{"source": "patent US20070155838A1", "about": "“New Method for Treating Urinary Disorders” (Pfizer Inc, priority 2003, published 2007)", "key": {"[1]": {"system": "women with urinary urgency and frequency", "test": "randomized, double-blind, placebo-controlled study of tolterodine tartrate (Detrol) tablets 1 mg b.i.d. in women with urinary urgency and frequency", "assay_type": "in vivo, human", "description": "The objective of a study is to evaluate the efficacy and safety of tolterodine tartrate (Detrol®) tablets 2 mg daily versus placebo, in the treatment of urinary urgency and frequency in women, in a randomized, double-blind, placebo-controlled study. The patients received 1 mg tolterodine b.i.d. or placebo, and the dosage regime was one tablet orally, every 8-12 hours, not to exceed 2 tablets daily. The treatment duration was 10 days, after a 5 day pretreatment baseline phase. […] women were included in the study, and were randomized to either the tolterodine or placebo group. All of the subjects were eligible for intent-to-treat (ITT) and safety analysis. 1077 of the randomized subjects were included in the per-protocol analysis.\nFemales with symptoms urinary urgency, defined as having to stop the current activity and go immediately to the bathroom at least once a day (severe) or able to finish a task but go right to the bathroom at least twice a day (moderate), were included. Frequency was defined as >7 micturitions per 24 hours. The mean age was 48 years. About 83% of the subjects were Caucasian.\nWomen were asked to complete a diary recording the time of awakening; number and severity of urgency of each micturition, and the number of episodes of incontinence throughout the day as well as, time when tablets taken. The women were directed to begin using the study drug after 5 days (baseline, pretreatment period): 1 tablet every 8-12 hours not to exceed 2 tablets per day.\nThus, this study was designed to evaluate the efficacy and safety of tolterodine 1 mg twice daily, every 8-12 hours, compared to placebo, in women with urinary urgency and frequency. The primary efficacy endpoints were: • 1. Subject perception of improvement in symptoms of urgency after five days of treatment, vs. baseline period, using a three-point categorical scale (Chi Square analysis): • 2. Mean of daily average severity of urgency for urgent episodes (urgency rating score of at least 1) for the 5-day baseline period vs. first five days of treatment.\nA five-point categorical scale was used to assess the severity of urgency experienced at each micturition, ranging from 0 (no discomfort) to 4 (very severe).\nThe secondary efficacy endpoints were: • 1. Average number of urgency episodes per day per subject for the 5-day baseline period vs. first five days of treatment. • 2. Average urgency score (severity of urgency) per subject for micturition episodes accompanied by urgency (a rating score of at least 1) for the 5-day baseline period vs. first day of treatment. • 3. Average number of micturitions per day per subject for the 5-day baseline period vs. first five days of treatment.\nSubject perception of improvement in symptoms or urgency after ten days of treatment, vs. baseline period, using a three-point categorical scale (Chi Square analysis).\nThe sudden urge to urinate accompanied by frequency of urination is a problem for many adults. The symptoms of urgency are most problematic. Therefore, the primary variables examined the subjective perception of improvement in urgency as well as the severity of urgency in subjects treated with tolterodine 1 mg b.i.d. In addition, the frequency of urination was examined as this is a standard assessment tool commonly used to assess the efficacy of drugs for the treatment of overactive bladder syndrome.\nTwo populations were analyzed for efficacy: the intent-to-treat (ITT) and the per-protocol populations. The former comprised all individuals randomized to treatment. The latter consisted of those individuals who complied with the protocol with regard to eligibility, visit schedule, diary completion and treatment schedule. All randomized subjects who took study medication were included in the safety analyses. Incidence of adverse events was tabulated for all randomized subjects. […]"}, "[2]": {"system": "muscarinic receptors of the salivary gland", "conditions": "compared with oxybutynin; cited from earlier work"}, "bladder": {"system": "bladder", "conditions": "compared with oxybutynin; cited from earlier work"}, "[3]": {"conditions": "all analyzed time points, including day 1, compared to placebo"}, "[4]": {"conditions": "all analyzed time points, compared to placebo"}}}
{"smiles": "Cc1ccc(O)c([C@H](CCN(C(C)C)C(C)C)c2ccccc2)c1", "note": "[tolterodine, (R)-N,N-diisopropyl-3-(2-hydroxy-5-methylphenyl)-3-phenylpropanamine]", "values": [{"measurement": "subjects with AEs related to nervous system disorders", "setting": "[1]; 1 mg b.i.d. oral, 10 days, placebo 2.0%", "result": 3.0, "unit": "%"}, {"measurement": "subjects with adverse events considered related to study medication", "setting": "[1]; 1 mg b.i.d. oral, 10 days, placebo 4.7%", "result": 4.8, "unit": "%"}, {"measurement": "subjects with AEs related to gastrointestinal disorders", "setting": "[1]; 1 mg b.i.d. oral, 10 days, placebo 4.9%", "result": 5.6, "unit": "%"}, {"measurement": "subjects reporting adverse events", "setting": "[1]; 1 mg b.i.d. oral, 10 days, placebo 10.7%", "result": 10.8, "unit": "%"}, {"measurement": "subjects with AEs related to nervous system disorders (number)", "setting": "[1]; 1 mg b.i.d. oral, 10 days, placebo 13", "result": 20, "unit": "subjects"}, {"measurement": "subjects with adverse events considered related to study medication (number)", "setting": "[1]; 1 mg b.i.d. oral, 10 days, placebo 31", "result": "thirty-two"}, {"measurement": "subjects with AEs related to gastrointestinal disorders (number)", "setting": "[1]; 1 mg b.i.d. oral, 10 days, placebo 32", "result": 37, "unit": "subjects"}, {"measurement": "subjects reporting adverse events (number)", "setting": "[1]; 1 mg b.i.d. oral, 10 days, placebo 70", "result": "Seventy-one"}, {"measurement": "subjects discontinued from the study due to AEs (number)", "setting": "[1]; 1 mg b.i.d. oral, 10 days, placebo four", "result": "Three"}, {"measurement": "subjects reporting serious AEs (number)", "setting": "[1]; 1 mg b.i.d. oral, 10 days, placebo one", "result": "Three"}, {"measurement": "percentage of subjects reporting symptom improvement (subject perception of improvement in symptoms of urgency)", "setting": "[1]; Day 5, 1 mg b.i.d. oral, compared to placebo", "result": "statistically significantly higher percentage"}, {"measurement": "decrease in severity of urgency for all micturitions", "setting": "[1]; [3]", "result": "statistically significantly greater decrease"}, {"measurement": "decrease in severity of urgency for urgent episodes", "setting": "[1]; [3]", "result": "statistically significantly greater decrease"}, {"measurement": "decrease in the number of micturitions/day", "setting": "[1]; [4]", "result": "statistically significantly greater decrease"}, {"measurement": "reduction in the number of urgent episodes/day", "setting": "[1]; [4]", "result": "statistically significantly greater reduction"}, {"measurement": "reduction from baseline in number of micturitions/day", "setting": "[1]; days 1-5, 1 mg b.i.d. oral, N=660, placebo 1.26", "result": 1.59}, {"measurement": "improvement from baseline in severity of urgency for urgent episodes (score, 0-4 scale)", "setting": "[1]; days 1-5, 1 mg b.i.d. oral, placebo 0.19", "result": 0.27}, {"measurement": "affinity for muscarinic receptors of the salivary gland relative to oxybutynin", "setting": "[2]", "result": "eight times lower"}, {"measurement": "potency in the bladder relative to oxybutynin", "setting": "bladder", "result": "equipotent with oxybutynin"}]}
